Experiments:
[1] = tested on: Puccinia recondita f. Sp. Tritici; test: Fungicidal activity, wheat leaf disc preventative (brown rust); format: in vivo; details: foliar, 200 ppm in the applied formulation, wheat leaf segments cv. Kanzler, compared to untreated control, 7 to 9 days after application, read-out: disease control
Method in brief: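 Preventative leaf-segment test: spray application of diluted formulated compound on wheat cv. Kanzler, spore inoculation after 1 day. Percent control relative to untreated segments rated 7 to 9 days post-application, with incubation at 19° C, 75% relative humidity, 12 h photoperiod.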

[2] = tested on: Puccinia recondita f. Sp. Tritici; test: Fungicidal activity, wheat leaf disc curative (brown rust); format: in vivo; details: foliar, 200 ppm in the applied formulation, wheat leaf segments cv. Kanzler, curative (applied 1 day after inoculation), compared to untreated control, 6 to 8 days after application, read-out: disease control
Method in brief: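 Compound applied 1 day after spore inoculation of wheat cv. Kanzler leaf segments on agar (dark, 19 °C, 75% RH before treatment). After further incubation under 12 h light/12 h dark at 19 °C and 75% RH, disease control relative to untreated segments rated 6–8 days post-application.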

[3] = tested on: Glomerella lacenarium (Colletotrichum lacenarium); test: Fungicidal activity, liquid culture, cucumber preventative (anthracnose); format: cell-based; details: 20 ppm in the applied formulation, liquid culture in PDB, inhibition of growth measured photometrically 3 to 4 days after application, compared to untreated control, read-out: disease control
Method in brief: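 Photometric read-out of fungal growth 3 to 4 days after application, expressed as percent control relative to untreated wells. Plates held at 24 °C. Compound placed in DMSO before adding PDB broth seeded with conidia from cryogenic storage.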

CC(=O)C(=O)N(C)Cc1ccc(-c2noc(C(F)(F)F)n2)s1 [Compound 6.8, N-methyl-2-oxo-N-[[5-[5-(trifluoromethyl)-1,2,4-oxadiazol-3-yl]-2-thienyl]methyl]propanamide]
≥ 80%: pest or weed control at 200 ppm [1] | pest or weed control at 200 ppm [2] | inhibition of growth at 20 ppm [3]

CC(C)N(Cc1ccc(-c2noc(C(F)(F)F)n2)s1)C(=O)C(N)=O [Compound 6.9, N′-isopropyl-N′-[[5-[5-(trifluoromethyl)-1,2,4-oxadiazol-3-yl]-2-thienyl]methyl]oxamide]
≥ 80%: pest or weed control at 200 ppm [1] | pest or weed control at 200 ppm [2] | inhibition of growth at 20 ppm [3]

CC(=O)C(=O)N(Cc1ccc(-c2noc(C(F)(F)F)n2)s1)C1CC1 [Compound 6.11, N-cyclopropyl-2-oxo-N-[[5-[5-(trifluoromethyl)-1,2,4-oxadiazol-3-yl]-2-thienyl]methyl]propanamide]
≥ 80%: pest or weed control at 200 ppm [1] | pest or weed control at 200 ppm [2] | inhibition of growth at 20 ppm [3]

CN(Cc1ccc(-c2noc(C(F)(F)F)n2)s1)S(C)(=O)=O [Compound 6.27, N-methyl-N-[[5-[5-(trifluoromethyl)-1,2,4-oxadiazol-3-yl]-2-thienyl]methyl]methanesulfonamide]
≥ 80%: pest or weed control at 200 ppm [1] | pest or weed control at 200 ppm [2] | inhibition of growth at 20 ppm [3]

CCN(Cc1ccc(-c2noc(C(F)(F)F)n2)s1)C(=O)C(=O)c1ccccc1 [Compound 6.40, N-ethyl-2-oxo-2-phenyl-N-[[5-[5-(trifluoromethyl)-1,2,4-oxadiazol-3-yl]-2-thienyl]methyl]acetamide]
≥ 80%: pest or weed control at 200 ppm [1] | pest or weed control at 200 ppm [2] | inhibition of growth at 20 ppm [3]

CCC(=O)C(=O)N(CC)Cc1ccc(-c2noc(C(F)(F)F)n2)s1 [Compound 6.42, N-ethyl-2-oxo-N-[[5-[5-(trifluoromethyl)-1,2,4-oxadiazol-3-yl]-2-thienyl]methyl]butanamide]
≥ 80%: pest or weed control at 200 ppm [1] | pest or weed control at 200 ppm [2] | inhibition of growth at 20 ppm [3]

CCN(Cc1ccc(-c2noc(C(F)(F)F)n2)s1)C(=O)C(=O)Cc1ccccc1 [Compound 6.43, N-ethyl-2-oxo-3-phenyl-N-[[5-[5-(trifluoromethyl)-1,2,4-oxadiazol-3-yl]-2-thienyl]methyl]propanamide]
≥ 80%: pest or weed control at 200 ppm [1] | pest or weed control at 200 ppm [2] | inhibition of growth at 20 ppm [3]

CCN(Cc1ccc(-c2noc(C(F)(F)F)n2)s1)C(=O)C(=O)c1ccco1 [Compound 6.46, N-ethyl-2-(2-furyl)-2-oxo-N-[[5-[5-(trifluoromethyl)-1,2,4-oxadiazol-3-yl]-2-thienyl]methyl]acetamide]
≥ 80%: pest or weed control at 200 ppm [1] | pest or weed control at 200 ppm [2] | inhibition of growth at 20 ppm [3]

CN(Cc1ccc(-c2noc(C(F)(F)F)n2)s1)C(=O)C(=O)c1ccccc1 [Compound 6.47, N-methyl-2-oxo-2-phenyl-N-[[5-[5-(trifluoromethyl)-1,2,4-oxadiazol-3-yl]-2-thienyl]methyl]acetamide]
≥ 80%: pest or weed control at 200 ppm [1] | pest or weed control at 200 ppm [2] | inhibition of growth at 20 ppm [3]

CN(Cc1ccc(-c2noc(C(F)(F)F)n2)s1)C(=O)C(=O)C(C)(C)C [Compound 6.48, N,3,3-trimethyl-2-oxo-N-[[5-[5-(trifluoromethyl)-1,2,4-oxadiazol-3-yl]-2-thienyl]methyl]butanamide]
≥ 80%: pest or weed control at 200 ppm [1] | pest or weed control at 200 ppm [2] | inhibition of growth at 20 ppm [3]

CCC(=O)C(=O)N(C)Cc1ccc(-c2noc(C(F)(F)F)n2)s1 [Compound 6.49, N-methyl-2-oxo-N-[[5-[5-(trifluoromethyl)-1,2,4-oxadiazol-3-yl]-2-thienyl]methyl]butanamide]
≥ 80%: pest or weed control at 200 ppm [1] | pest or weed control at 200 ppm [2] | inhibition of growth at 20 ppm [3]

Reference: patent US20200187502A1, “MICROBIOCIDAL OXADIAZOLE DERIVATIVES” (SYNGENTA PARTICIPATIONS AG, priority 2017, published 2020)
